Assay results: patent publication US8481597B2, “Use of (-) (3-trihalomethylphenoxy) (4-halophenyl) acetic acid derivatives for treatment of insulin resistance, type 2 diabetes, hyperlipidemia and hyperuricemia” (Metabolex, Inc., priority 1999, dated 2013)
Read-outs that look alike come from different tables or passages of the source.

Assays:
[1] = target: T1, CYP2A6 (Homo sapiens, UniProt P11509); experiment: Cytochrome P450 isoform inhibition, coumarin, human hepatic microsomes (Example 18); settings: TRAN 250 μM; 1 μM coumarin; VC 32.0 ± 1.4
T1 sequence (P11509 1-494): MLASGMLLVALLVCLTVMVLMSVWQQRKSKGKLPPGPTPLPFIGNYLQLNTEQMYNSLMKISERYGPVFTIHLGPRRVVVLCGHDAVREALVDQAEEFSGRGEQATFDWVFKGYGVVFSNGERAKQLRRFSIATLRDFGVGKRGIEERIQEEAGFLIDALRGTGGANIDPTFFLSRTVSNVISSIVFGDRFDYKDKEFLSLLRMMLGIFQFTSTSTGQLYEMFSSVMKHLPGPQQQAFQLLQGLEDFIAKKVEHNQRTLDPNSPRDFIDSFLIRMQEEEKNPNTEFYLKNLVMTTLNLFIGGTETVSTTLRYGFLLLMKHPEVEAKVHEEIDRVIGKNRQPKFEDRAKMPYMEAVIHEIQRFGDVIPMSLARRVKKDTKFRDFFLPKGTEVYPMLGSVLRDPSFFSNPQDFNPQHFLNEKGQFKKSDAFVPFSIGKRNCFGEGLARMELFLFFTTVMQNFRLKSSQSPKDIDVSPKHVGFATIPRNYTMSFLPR

[2] = target: T1, CYP2A6; settings: for 7-HC Production: both, human, 20 min
[3] = system: C57BL/6J ob/ob mice; experiment: Glucose lowering of (±) and (−) halofenate analogs in ob/ob mice (Example 12); assay type: in vivo
[4] = target: CYP3A4 (Homo sapiens, UniProt P08684); settings: both, 10 min
[5] = target: CYP2D6 (Homo sapiens, UniProt P10635); settings: both, 15 min
[6] = target: CYP2C9 (Homo sapiens, UniProt P11712); settings: both, human, 40 min
[7] = target: T2, CYP1A2 (Homo sapiens, UniProt P05177); settings: both, 30 min
T2 sequence (P05177 1-516): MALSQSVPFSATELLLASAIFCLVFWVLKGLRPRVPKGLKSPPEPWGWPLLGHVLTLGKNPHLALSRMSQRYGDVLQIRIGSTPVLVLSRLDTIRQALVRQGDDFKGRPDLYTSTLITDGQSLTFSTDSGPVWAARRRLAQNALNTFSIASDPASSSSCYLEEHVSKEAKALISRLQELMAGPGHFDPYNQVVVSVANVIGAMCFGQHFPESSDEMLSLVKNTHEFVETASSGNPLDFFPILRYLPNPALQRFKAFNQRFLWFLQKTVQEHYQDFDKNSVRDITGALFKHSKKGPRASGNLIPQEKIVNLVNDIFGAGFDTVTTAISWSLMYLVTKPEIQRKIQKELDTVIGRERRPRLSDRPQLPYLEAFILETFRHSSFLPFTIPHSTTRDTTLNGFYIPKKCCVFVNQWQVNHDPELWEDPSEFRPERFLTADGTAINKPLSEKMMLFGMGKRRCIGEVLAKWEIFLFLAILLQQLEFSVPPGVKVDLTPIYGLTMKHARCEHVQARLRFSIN

[8] = target: cytochrome P450 2C9 (CYP2C9) (Homo sapiens, UniProt P11712); experiment: Inhibition of CYP2C9 tolbutamide hydroxylation in pooled human liver microsomes (Example 7); settings: ratio of apparent IC50
Chain of cytochrome P450 2C9 (CYP2C9) (P11712 whole entry): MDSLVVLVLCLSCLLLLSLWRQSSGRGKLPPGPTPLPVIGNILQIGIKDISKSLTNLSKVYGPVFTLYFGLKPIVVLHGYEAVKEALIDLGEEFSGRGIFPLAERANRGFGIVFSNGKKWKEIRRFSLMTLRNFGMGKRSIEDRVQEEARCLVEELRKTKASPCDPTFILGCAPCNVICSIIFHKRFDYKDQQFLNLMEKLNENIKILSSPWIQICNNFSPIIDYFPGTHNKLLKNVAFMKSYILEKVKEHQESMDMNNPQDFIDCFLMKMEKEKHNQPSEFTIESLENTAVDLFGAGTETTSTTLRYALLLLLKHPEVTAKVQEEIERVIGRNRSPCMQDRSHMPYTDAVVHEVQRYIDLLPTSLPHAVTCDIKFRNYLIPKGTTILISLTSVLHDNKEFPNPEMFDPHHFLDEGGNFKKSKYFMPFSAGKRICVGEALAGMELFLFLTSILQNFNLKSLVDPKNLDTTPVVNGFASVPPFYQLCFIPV
Method: Tolbutamide hydroxylation activity (100 μM ^14C-tolbutamide; 1 mM NADPH) was assayed in pooled human liver microsomes (0.6 mg protein/ml)) for 60 minutes at 37° C. both with and without test compounds.

Chain of CYP2D6 (P10635 whole entry): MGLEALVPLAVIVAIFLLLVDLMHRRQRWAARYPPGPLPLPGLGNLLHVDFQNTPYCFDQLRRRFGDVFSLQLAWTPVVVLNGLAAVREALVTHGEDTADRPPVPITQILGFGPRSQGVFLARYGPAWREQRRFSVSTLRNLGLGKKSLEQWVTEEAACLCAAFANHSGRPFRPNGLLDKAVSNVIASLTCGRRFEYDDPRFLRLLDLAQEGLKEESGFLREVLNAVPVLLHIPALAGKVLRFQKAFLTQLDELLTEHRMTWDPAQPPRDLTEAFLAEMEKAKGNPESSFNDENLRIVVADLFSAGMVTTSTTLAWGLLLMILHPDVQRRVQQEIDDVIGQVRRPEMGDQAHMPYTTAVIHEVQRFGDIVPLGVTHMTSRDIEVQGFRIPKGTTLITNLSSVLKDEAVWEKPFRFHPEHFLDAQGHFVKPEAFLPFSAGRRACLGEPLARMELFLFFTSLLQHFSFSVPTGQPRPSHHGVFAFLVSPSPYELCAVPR
Chain of CYP2C9 (P11712 whole entry): as the sequence (P11712 whole entry) above
Chain of CYP3A4 (P08684 whole entry): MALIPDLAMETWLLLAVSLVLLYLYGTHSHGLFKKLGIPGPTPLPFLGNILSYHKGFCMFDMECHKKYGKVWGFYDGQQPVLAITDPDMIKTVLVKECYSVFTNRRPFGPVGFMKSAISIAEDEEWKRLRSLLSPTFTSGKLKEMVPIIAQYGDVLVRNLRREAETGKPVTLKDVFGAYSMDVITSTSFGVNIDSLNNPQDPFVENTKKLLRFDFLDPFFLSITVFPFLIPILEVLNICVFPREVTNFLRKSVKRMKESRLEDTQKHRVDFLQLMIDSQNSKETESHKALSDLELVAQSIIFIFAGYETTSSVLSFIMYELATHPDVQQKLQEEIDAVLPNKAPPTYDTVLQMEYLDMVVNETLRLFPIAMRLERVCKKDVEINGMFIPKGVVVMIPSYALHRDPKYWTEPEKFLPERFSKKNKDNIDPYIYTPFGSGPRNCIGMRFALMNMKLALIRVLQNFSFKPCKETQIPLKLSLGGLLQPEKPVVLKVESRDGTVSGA

N[C@@H]1C[C@H]1c1ccccc1 (racemic) [TRAN, tranylcypromine, reference compound]
7-HC Production [1]: 0.00 ± 0.00 pmol/mg protein/min | % Inhibition (Coumarin, CYP2A6) ([2]; microsomes): 100%

O=C(O)C(Oc1cccc(C(F)(F)F)c1)c1ccc(Cl)cc1 (single isomer, unassigned; (-)) [(−) halofenic acid, (−) 4-chlorophenyl-(3-trifluoromethylphenoxy)-acetic acid]
time points with significantly lowered plasma glucose concentrations ([3]; 125 mg/kg oral once a day): 6 h | 6 hours Glucose ([3]; 125 mg/kg oral once a day, 6 hours after first dose): 163.8 ± 11.8 mg/dL | Predose Glucose ([3]; baseline before dosing, group later given 125 mg/kg oral once a day): 312.9 ± 17.7 mg/dL | 6β-OHT Production ([4]; 0.33 μM): 1816 ± 12 pmol/mg protein/min | 6β-OHT Production ([4]; 1 μM): 1851 ± 14 pmol/mg protein/min | 6β-OHT Production ([4]; 3.3 μM): 1810 ± 3 pmol/mg protein/min | 6β-OHT Production ([4]; 10 μM): 1819 ± 4 pmol/mg protein/min | 6β-OHT Production ([4]; 33.3 μM): 1816 ± 6 pmol/mg protein/min | DEX Production ([5]; 0.33 μM): 107 ± 4 pmol/mg protein/min | DEX Production ([5]; 1 μM): 110 ± 2 pmol/mg protein/min | DEX Production ([5]; 3.3 μM): 104 ± 3 pmol/mg protein/min | DEX Production ([5]; 10 μM): 107 ± 1 pmol/mg protein/min | DEX Production ([5]; 33.3 μM): 106 ± 4 pmol/mg protein/min | 4-OH TB Production ([6]; 0.33 μM): 41.0 ± 0.9 pmol/mg protein/min | 4-OH TB Production ([6]; 1 μM): 38.6 ± 0.5 pmol/mg protein/min | 4-OH TB Production ([6]; 3.3 μM): 34.2 ± 0.2 pmol/mg protein/min | 4-OH TB Production ([6]; 10 μM): 22.7 ± 0.6 pmol/mg protein/min | 4-OH TB Production ([6]; 33.3 μM): 12.7 ± 0.2 pmol/mg protein/min | IC50 ([6]; microsomes): ~11.3 µM | 7-HC Production ([2]; 0.33 μM): 33.3 ± 0.7 pmol/mg protein/min | 7-HC Production ([2]; 1 μM): 32.6 ± 0.7 pmol/mg protein/min | 7-HC Production ([2]; 3.3 μM): 32.1 ± 0.7 pmol/mg protein/min | 7-HC Production ([2]; 10 μM): 33.1 ± 0.7 pmol/mg protein/min | 7-HC Production ([2]; 33.3 μM): 32.3 ± 0.7 pmol/mg protein/min | AC Production ([7]; 0.33 μM): 116 ± 2 pmol/mg protein/min | AC Production ([7]; 1 μM): 118 ± 2 pmol/mg protein/min | AC Production ([7]; 3.3 μM): 119 ± 2 pmol/mg protein/min | AC Production ([7]; 10 μM): 119 ± 2 pmol/mg protein/min | AC Production ([7]; 33.3 μM): 119 ± 2 pmol/mg protein/min | fold less potent than (+) halofenic acid in inhibiting CYP2C9 [8]: ~20 fold
